US12077503B2, “Substituted cyclic amides and their use as herbicides” (FMC CORPORATION, priority 2015, dated 2024)

Columns and labels:
Format in all cases: in vivo
[1] = tested on: barnyardgrass (Echinochloa crus-galli); experiment: Test G Pre-Emergence Protocol; settings: Echinochloa crus-galli, pre-emergence, 312 h, evaluated after 13 days; for pest or weed control at 15.625 g/ha: 15.625 g ai/ha, read-out: Barnyard grass damage rating (100=total damage to plant; 0=no damage to plant); for pest or weed control at 62.5 g/ha: 62.5 g ai/ha, 100=total damage to plant, 0=no damage to plant, read-out: plant damage rating, Barnyardgrass; for pest or weed control at 250 g/ha: 250 g ai/ha, read-out: Barnyardgrass damage rating (100=total damage to plant; 0=no damage to plant)
Procedure, shortened: (§1)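 Glasshouse pre-emergence test: soil-sown seeds, sprayed after 1 d at 15.625, 62.5 or 250 g/ha. Conditions 24/16° C day/night, 14 h light, 65% humidity, watering twice daily. Rating 13 d post-spray (100 = total damage).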

corn (Zea mays) [2] = experiment: Test G Pre-Emergence Protocol; settings: Zea mays, pre-emergence, 312 h, evaluated after 13 days; for plant injury at 15.625 g/ha: 15.625 g ai/ha; for plant injury at 15.625 g/ha / plant injury at 250 g/ha: read-out: Corn damage rating (100=total damage to plant; 0=no damage to plant); for plant injury at 62.5 g/ha: 62.5 g ai/ha, 100=total damage to plant, 0=no damage to plant, read-out: plant damage rating, Corn; for plant injury at 250 g/ha: 250 g ai/ha
Procedure, shortened: as §1

[3] = tested on: giant foxtail (Setaria faberi); experiment: Test G Pre-Emergence Protocol; settings: Setaria faberi, pre-emergence, 312 h, evaluated after 13 days; for pest or weed control at 15.625 g/ha: 15.625 g ai/ha; for pest or weed control at 15.625 g/ha / pest or weed control at 250 g/ha: read-out: Foxtail, Giant damage rating (100=total damage to plant; 0=no damage to plant); for pest or weed control at 62.5 g/ha: 62.5 g ai/ha, 100=total damage to plant, 0=no damage to plant, read-out: plant damage rating, Foxtail, Giant; for pest or weed control at 250 g/ha: 250 g ai/ha
Procedure, shortened: as §1

[4] = tested on: ivy-leaved morning glory (Ipomoea hederacea); experiment: Test G Pre-Emergence Protocol; settings: Ipomoea, pre-emergence, 312 h, evaluated after 13 days; for pest or weed control at 15.625 g/ha: 15.625 g ai/ha, read-out: Morning-glory, Ivy-leaved damage rating (100=total damage to plant; 0=no damage to plant); for pest or weed control at 62.5 g/ha: 62.5 g ai/ha, 100=total damage to plant, 0=no damage to plant, read-out: plant damage rating, Morningglory, Ivy-leaved; for pest or weed control at 250 g/ha: 250 g ai/ha, read-out: Morningglory, Ivy-leaved damage rating (100=total damage to plant; 0=no damage to plant)
Procedure, shortened: as §1

[5] = tested on: redroot pigweed (Amaranthus retroflexus); experiment: Test G Pre-Emergence Protocol; settings: Amaranthus retroflexus, pre-emergence, 312 h, evaluated after 13 days; for pest or weed control at 15.625 g/ha: 15.625 g ai/ha; for pest or weed control at 15.625 g/ha / pest or weed control at 250 g/ha: read-out: Pigweed, Redroot damage rating (100=total damage to plant; 0=no damage to plant); for pest or weed control at 250 g/ha: 250 g ai/ha; for pest or weed control at 62.5 g/ha: 62.5 g ai/ha, 100=total damage to plant, 0=no damage to plant, read-out: plant damage rating, Pigweed, Redroot
Procedure, shortened: as §1

[6] = tested on: velvetleaf (Abutilon theophrasti); experiment: Test G Pre-Emergence Protocol; settings: Abutilon theophrasti, pre-emergence, 312 h, evaluated after 13 days; for pest or weed control at 15.625 g/ha: 15.625 g ai/ha; for pest or weed control at 15.625 g/ha / pest or weed control at 250 g/ha: read-out: Velvetleaf damage rating (100=total damage to plant; 0=no damage to plant); for pest or weed control at 62.5 g/ha: 62.5 g ai/ha, 100=total damage to plant, 0=no damage to plant, read-out: plant damage rating, Velvetleaf; for pest or weed control at 250 g/ha: 250 g ai/ha
Procedure, shortened: as §1

[7] = tested on: barnyardgrass (Echinochloa crus-galli); experiment: Test G Post-Emergence Protocol; settings: Echinochloa crus-galli, post-emergence, 312 h; for pest or weed control at 15.625 g/ha: 15.625 g ai/ha, evaluated after 13 days (100=total damage to plant; 0=no damage to plant), read-out: Barnyardgrass damage rating; for pest or weed control at 62.5 g/ha: 62.5 g ai/ha, read-out: Barnyardgrass damage rating (100=total damage to plant; 0=no damage to plant); for pest or weed control at 62.5 g/ha / pest or weed control at 250 g/ha: evaluated after 13 days; for pest or weed control at 250 g/ha: 250 g ai/ha, read-out: damage to plant, Barnyardgrass (100=total damage to plant; 0=no damage to plant)
Procedure, shortened: (§2)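 A glasshouse post-emergence test: 8-day-old plants sprayed at 15.625, 62.5 or 250 g/ha, then grown at 24/16 °C day/night with 14 h light and 65% humidity. Damage rated 13 days later, 0–100.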

corn (Zea mays) [8] = experiment: Test G Post-Emergence Protocol; settings: Zea mays, post-emergence, 312 h; for plant injury at 15.625 g/ha: 15.625 g ai/ha, evaluated after 13 days (100=total damage to plant; 0=no damage to plant), read-out: Corn damage rating; for plant injury at 62.5 g/ha: 62.5 g ai/ha, read-out: Corn damage rating (100=total damage to plant; 0=no damage to plant); for plant injury at 62.5 g/ha / plant injury at 250 g/ha: evaluated after 13 days; for plant injury at 250 g/ha: 250 g ai/ha, read-out: damage to plant, Corn (100=total damage to plant; 0=no damage to plant)
Procedure, shortened: as §2

[9] = tested on: giant foxtail (Setaria faberi); experiment: Test G Post-Emergence Protocol; settings: Setaria faberi, post-emergence, 312 h; for pest or weed control at 15.625 g/ha: 15.625 g ai/ha, evaluated after 13 days (100=total damage to plant; 0=no damage to plant), read-out: Foxtail, Giant damage rating; for pest or weed control at 62.5 g/ha: 62.5 g ai/ha, read-out: Foxtail, Giant damage rating (100=total damage to plant; 0=no damage to plant); for pest or weed control at 62.5 g/ha / pest or weed control at 250 g/ha: evaluated after 13 days; for pest or weed control at 250 g/ha: 250 g ai/ha, read-out: damage to plant, Foxtail, Giant (100=total damage to plant; 0=no damage to plant)
Procedure, shortened: as §2

[10] = tested on: ivy-leaved morning glory (Ipomoea hederacea); experiment: Test G Post-Emergence Protocol; settings: Ipomoea, post-emergence, 312 h; for pest or weed control at 15.625 g/ha: 15.625 g ai/ha, evaluated after 13 days (100=total damage to plant; 0=no damage to plant), read-out: Morningglory, Ivy-leaved damage rating; for pest or weed control at 62.5 g/ha: 62.5 g ai/ha, read-out: Morningglory, Ivy-leaved damage rating (100=total damage to plant; 0=no damage to plant); for pest or weed control at 62.5 g/ha / pest or weed control at 250 g/ha: evaluated after 13 days; for pest or weed control at 250 g/ha: 250 g ai/ha, read-out: damage to plant, Morningglory, Ivy-leaved (100=total damage to plant; 0=no damage to plant)
Procedure, shortened: as §2

[11] = tested on: redroot pigweed (Amaranthus retroflexus); experiment: Test G Post-Emergence Protocol; settings: Amaranthus retroflexus, post-emergence, 312 h; for pest or weed control at 15.625 g/ha: 15.625 g ai/ha, evaluated after 13 days (100=total damage to plant; 0=no damage to plant), read-out: Pigweed, Redroot damage rating; for pest or weed control at 62.5 g/ha: 62.5 g ai/ha, read-out: Pigweed, Redroot damage rating (100=total damage to plant; 0=no damage to plant); for pest or weed control at 62.5 g/ha / pest or weed control at 250 g/ha: evaluated after 13 days; for pest or weed control at 250 g/ha: 250 g ai/ha, read-out: damage to plant, Pigweed, Redroot (100=total damage to plant; 0=no damage to plant)
Procedure, shortened: as §2

[12] = tested on: velvetleaf (Abutilon theophrasti); experiment: Test G Post-Emergence Protocol; settings: Abutilon theophrasti, post-emergence, 312 h; for pest or weed control at 15.625 g/ha: 15.625 g ai/ha, evaluated after 13 days (100=total damage to plant; 0=no damage to plant), read-out: Velvetleaf damage rating; for pest or weed control at 62.5 g/ha: 62.5 g ai/ha, read-out: Velvetleaf damage rating (100=total damage to plant; 0=no damage to plant); for pest or weed control at 62.5 g/ha / pest or weed control at 250 g/ha: evaluated after 13 days; for pest or weed control at 250 g/ha: 250 g ai/ha, read-out: damage to plant, Velvetleaf (100=total damage to plant; 0=no damage to plant)
Procedure, shortened: as §2

| SMILES | pest or weed control at 15.625 g/ha [1] | pest or weed control at 62.5 g/ha [1] | pest or weed control at 250 g/ha [1] | plant injury at 15.625 g/ha (corn (Zea mays) [2]) | plant injury at 62.5 g/ha (corn (Zea mays) [2]) | plant injury at 250 g/ha (corn (Zea mays) [2]) | pest or weed control at 15.625 g/ha [3] | pest or weed control at 62.5 g/ha [3] | pest or weed control at 250 g/ha [3] | pest or weed control at 15.625 g/ha [4] | pest or weed control at 62.5 g/ha [4] | pest or weed control at 250 g/ha [4] | pest or weed control at 15.625 g/ha [5] | pest or weed control at 250 g/ha [5] | pest or weed control at 15.625 g/ha [6] | pest or weed control at 62.5 g/ha [6] | pest or weed control at 250 g/ha [6] | pest or weed control at 15.625 g/ha [7] | pest or weed control at 62.5 g/ha [7] | pest or weed control at 250 g/ha [7] | also measured |
| --- | --- | --- | --- | --- | --- | --- | --- | --- | --- | --- | --- | --- | --- | --- | --- | --- | --- | --- | --- | --- | --- |
| CN1C[C@H](c2ccc(C(F)(F)F)cc2)[C@@H](C(=O)Nc2ccccc2S(C)(=O)=O)C1=O (racemic) [Compound 1459] | 20% | 60% | 60% | 0% | 0% | 0% | 40% | 60% | 80% | 0% | 0% | 0% | 0% | 60% | 0% | 0% | 0% | 0% | 10% | 20% | plant injury at 15.625 g/ha (corn (Zea mays) [8]): 10%; plant injury at 62.5 g/ha (corn (Zea mays) [8]): 10%; plant injury at 250 g/ha (corn (Zea mays) [8]): 10%; pest or weed control at 15.625 g/ha [9]: 10%; pest or weed control at 62.5 g/ha [9]: 60%; pest or weed control at 250 g/ha [9]: 60%; pest or weed control at 15.625 g/ha [10]: 0%; pest or weed control at 62.5 g/ha [10]: 0%; pest or weed control at 250 g/ha [10]: 20%; pest or weed control at 15.625 g/ha [11]: 30%; pest or weed control at 62.5 g/ha [11]: 40%; pest or weed control at 250 g/ha [11]: 40%; pest or weed control at 15.625 g/ha [12]: 0%; pest or weed control at 62.5 g/ha [12]: 0%; pest or weed control at 250 g/ha [12]: 0% |
| COC(=O)c1cc([C@H]2CN(C)C(=O)[C@@H]2C(=O)Nc2ccccc2F)ccc1Cl (racemic) [Compound 1460] | 0% | 70% | 90% | 0% | 0% | 10% | 10% | 80% | 90% | 0% | 40% | 50% | 0% | 70% | 0% | 0% | 0% | 20% | 30% | 60% | pest or weed control at 62.5 g/ha [5]: 40%; plant injury at 15.625 g/ha (corn (Zea mays) [8]): 10%; plant injury at 62.5 g/ha (corn (Zea mays) [8]): 0%; plant injury at 250 g/ha (corn (Zea mays) [8]): 40%; pest or weed control at 15.625 g/ha [9]: 40%; pest or weed control at 62.5 g/ha [9]: 70%; pest or weed control at 250 g/ha [9]: 70%; pest or weed control at 15.625 g/ha [10]: 0%; pest or weed control at 62.5 g/ha [10]: 0%; pest or weed control at 250 g/ha [10]: 10%; pest or weed control at 15.625 g/ha [11]: 0%; pest or weed control at 62.5 g/ha [11]: 10%; pest or weed control at 250 g/ha [11]: 20%; pest or weed control at 15.625 g/ha [12]: 0%; pest or weed control at 62.5 g/ha [12]: 0%; pest or weed control at 250 g/ha [12]: 10% |
| CN1C[C@H](c2cccc(C#N)c2)[C@@H](C(=O)Nc2ccccc2F)C1=O (racemic) [Compound 1471] | 10% | 70% | 90% | 0% | 0% | 0% | 40% | 80% | 90% | 0% | 0% | 20% | 0% | 0% | 0% | 0% | 0% | 30% | 30% | 50% | pest or weed control at 62.5 g/ha [5]: 0%; plant injury at 15.625 g/ha (corn (Zea mays) [8]): 10%; plant injury at 62.5 g/ha (corn (Zea mays) [8]): 0%; plant injury at 250 g/ha (corn (Zea mays) [8]): 0%; pest or weed control at 15.625 g/ha [9]: 10%; pest or weed control at 62.5 g/ha [9]: 60%; pest or weed control at 250 g/ha [9]: 70%; pest or weed control at 15.625 g/ha [10]: 10%; pest or weed control at 62.5 g/ha [10]: 0%; pest or weed control at 250 g/ha [10]: 20%; pest or weed control at 15.625 g/ha [11]: 10%; pest or weed control at 62.5 g/ha [11]: 0%; pest or weed control at 250 g/ha [11]: 20%; pest or weed control at 15.625 g/ha [12]: 10%; pest or weed control at 62.5 g/ha [12]: 0%; pest or weed control at 250 g/ha [12]: 10% |
